According to ChEMBL document CHEMBL4020755, “Design, synthesis, and biological evaluation of deuterated apalutamide with improved pharmacokinetic profiles” (Bioorg Med Chem Lett, 2017):

Columns and labels:
Format in all cases: ADME, organism-based
Details in all cases: in vivo, po
[1] = Mean residence time in Sprague-Dawley rat 10 mg/kg administered orally measured up to 24 hrs by LC-MS/MS analysis
[2] = Cmax in Balb/c mouse at 10 mg/kg administered orally measured up to 24 hrs by LC-MS/MS analysis; parameters: dose 10 mg/kg, route oral
[3] = AUC (0 to infinity) in Sprague-Dawley rat at 10 mg/kg administered orally measured up to 24 hrs by LC-MS/MS analysis; parameters: dose 10 mg/kg, route oral, time infinity
[4] = Cmax in Sprague-Dawley rat at 10 mg/kg administered orally measured up to 24 hrs by LC-MS/MS analysis; parameters: dose 10 mg/kg, route oral
[5] = Tmax in Balb/c mouse at 10 mg/kg administered orally measured up to 24 hrs by LC-MS/MS analysis
[6] = Half life in Balb/c mouse at 10 mg/kg administered orally measured up to 24 hrs by LC-MS/MS analysis
[7] = AUC (0 to 24 hrs) in Balb/c mouse at 10 mg/kg administered orally measured up to 24 hrs by LC-MS/MS analysis; parameters: dose 10 mg/kg, time < 24 hr, route oral
[8] = Half life in Sprague-Dawley rat 10 mg/kg administered orally measured up to 24 hrs by LC-MS/MS analysis

Compound	MRT [1]	Cmax [2]	AUC(0-inf) [3]	Cmax [4]	Tmax [5]	half-life [6]	AUC(0-t) at 24 h [7]	half-life [8]
[2H]c1cc(C(=O)NC([2H])([2H])[2H])c(F)c([2H])c1N1C(=S)N(c2cnc(C#N)c(C(F)(F)F)c2)C(=O)C12CCC2	–	3940 ng/mL	–	–	4 h	54.9 h	80600 ng·h/mL	–
[2H]C1([2H])CC([2H])([2H])C12C(=O)N(c1cnc(C#N)c(C(F)(F)F)c1)C(=S)N2c1ccc(C(=O)NC)c(F)c1	–	2170 ng/mL	–	–	6 h	32.3 h	41100 ng·h/mL	–

Now from value to compound:

MRT [1]	Cmax [2]	AUC(0-inf) [3]	Cmax [4]	Tmax [5]	half-life [6]	AUC(0-t) at 24 h [7]	half-life [8]	Compound
10.7 h	3320 ng/mL	14800 ng·h/mL	946 ng/mL	6 h	5.9 h	61600 ng·h/mL	7.4 h	CNC(=O)c1ccc(N2C(=S)N(c3cnc(C#N)c(C(F)(F)F)c3)C(=O)C23CCC3)cc1F [APALUTAMIDE]
–	3480 ng/mL	–	–	6 h	6.6 h	63800 ng·h/mL	–	[2H]c1cc(C(=O)NC)c(F)c([2H])c1N1C(=S)N(c2cnc(C#N)c(C(F)(F)F)c2)C(=O)C12CCC2
13 h	4480 ng/mL	28700 ng·h/mL	1700 ng/mL	4 h	32.3 h	87800 ng·h/mL	8.9 h	[2H]C([2H])([2H])NC(=O)c1ccc(N2C(=S)N(c3cnc(C#N)c(C(F)(F)F)c3)C(=O)C23CCC3)cc1F
